In US20220348565A1, “PHARMACEUTICAL COMPOUNDS” (SENTINEL ONCOLOGY LIMITED, priority 2019, published 2022):

Key:
[1] = biological target: T1, PLK1 catalytic domain (Homo sapiens, UniProt P53350); assay: DiscoverX KinomeScreen competition binding assay, PLK1; conditions: read-out: % Ctrl @ 3 μM
T1 construct: purchased DiscoverX; host or cells: T7 phage in E. coli (BL21-derived) or HEK-293
Method: Atropisomer A-2 has been tested for off-target activity against a panel of ninety-seven kinases distributed across the kinome at a concentration of 3 μM using the DiscoverX KinomeScreen assay. The DiscoverX KinomeScreen assay is a site-directed competition binding assay which measures the binding affinity of a compound to a kinase, by use of a solid supported control compound which can bind or capture the kinases in solution. In the absence of a kinase-inhibitor test compound, all of the kinase will bind to the solid support. If a kinase-inhibitor test compound is added to the assay mix, the amount of kinase binding to the solid support will be reduced, the extent of reduction being dependent on the potency of the test compound as a kinase inhibitor. […] For most assays, kinase-tagged T7 phage strains were grown in parallel in 24-well blocks in an E. coli host derived from the BL21 strain. […] The kinase concentration in the eluates was measured by qPCR. […] The strength of binding of the test molecule to the kinase can be expressed as the percent control (% Ctrl) The compound(s) were screened at 3000 nM concentration, and results for primary screen binding interactions are reported as ‘% Ctrl’, where lower numbers indicate stronger hits in the matrix on the following page(s). […]

[2] = tested on: U87MG cells; assay: Mitotic phenotype study in U87MG cells; assay type: cell-based, human; conditions: 0.03 μM, listed as A-2
Method: Distinct mitotic phenotypes are induced following inhibition of PLK1 and PLK4 in cells. […] Centriole assembly is controlled by PLK4, with inhibitors inducing a multipolar spindle phenotype due to centrosome defects which results in abnormal cyokinesis (Wong et al., 2015. Science 348(6239); 1155-1160). Cells were plated at 10 000/well in 96-well plates and incubated overnight. The following day atropisomer A-2 stocks in DMSO were diluted in medium then added to cells with a maximum final DMSO concentration on cells of 0.2%. Cells were incubated with the compound for 24 hours then fixed in 3.7% formaldehyde. Cells were permeabilised with 0.1% Triton X-100 then incubated with anti-phospho-histone H3 (Ser10) antibody (Abcam). The cells were washed with PBS then incubated with AlexaFluor 488 labelled goat anti-rabbit IgG (Invitrogen) in the presence of 4 ug/mL Hoechst 33342 (Invitrogen). Cells were washed in PBS then imaged on an Arrayscan VTi HCS instrument using the Target Activation V4 Bioapplication. A user-defined threshold was applied to identify mitotic cells based on the intensity of phospho-histone H3 staining. In a separate study, following the above protocol and using single compound concentrations of 0.03 μM for each of atropisomer A-1 and atropisomer A-2, the frequency of observed mitotic phenotypes in U87MG cells was manually assessed and classified into the following phenotypes: non-congressed chromosomes, multipolar spindles/abnormal cytokinesis, monopolar spindles, normal prometaphase, normal metaphase for each of A-1 and A-2.

[3] = tested on: HeLa cells stably expressing a Centrin1-GFP fusion protein; assay: Centriole number in Centrin1-GFP HeLa cells; assay type: cell-based; conditions: 0.02 μM, 72 hours
Method: The effects of A-1 and A-2 on centrosome function were therefore investigated further. HeLa cells stably expressing a Centrin1-GFP fusion protein were seeded into 96-well plates overnight. Cells were treated with atropisomer A-1 or atropisomer A-2 (at concentrations of 0.02 μM in DMSO) or DMSO control for 72 hours and then imaged using a fluorescence microscope. Multiple cell fields were captured for each treatment condition, and the images were subsequently analysed manually. Centrin1-GFP specifically marks centrioles as discrete foci, and therefore can be used to quantitate centriole number per cell. Thus, for each treatment condition, 100 cells were analysed and the number of centrioles present in each cell was recorded. The data were then separated into bins (no centrioles, 1 centriole, 2 centrioles, and greater than 2 centrioles) and are shown in FIG. 11.

[4] = Mouse PK, brain exposure after p.o. dosing; assay type: in vivo, Male CD-1 mice
Method: Atropisomers A-2 and A-3 were evaluated in an in vivo mouse model to determine brain and plasma concentrations following p.o. and i.v. dosing.
Male CD-1 mice were dosed with the compounds of Examples A-2 and A-3, either by i.v. administration (2 mg/kg) or by p.o. administration (10 mg/kg). Eight samples were taken for analysis in the i.v. leg at 2, 10, 30 min, 1, 2, 4, 8, and 24 (for i.v) and 9 samples in the p.o. leg at 15, 30 min, 1, 2, 4, 8, 24, 48 and 72 hrs.
The compounds of Examples A-2 and A-3 were both formulated in 10% DMSO/90% hydroxypropyl-beta-cyclodextrin (20% w/v in water) for i.v. and p.o. dosing. N =3 mice per time point.
Post dosing, terminal blood samples were taken from individual animals and delivered into labelled polypropylene tubes containing anticoagulant (EDTA). The samples were held on wet ice for a maximum of 30 min while sampling of all the animals in the cohort was completed. The blood samples were centrifuged for plasma (4° C., 21100 g for 5 min) and the resulting plasma transferred into corresponding labelled tubes. Terminal brains from each PO dosed animal were excised, rinsed with saline and placed into pre-weighed labelled polypropylene tubes and the samples re-weighed prior to storage.
Quantitative bioanalysis was carried out using liquid chromatography—mass spectroscopy was performed. The results are shown in Tables 14, 15 and 16 below and in FIGS. 12 to 15.

[5] = mouse, po, brain exposure, p.o. 10 mg/kg, male CD-1 mice

T1 sequence (P53350 53-305 limits assumed): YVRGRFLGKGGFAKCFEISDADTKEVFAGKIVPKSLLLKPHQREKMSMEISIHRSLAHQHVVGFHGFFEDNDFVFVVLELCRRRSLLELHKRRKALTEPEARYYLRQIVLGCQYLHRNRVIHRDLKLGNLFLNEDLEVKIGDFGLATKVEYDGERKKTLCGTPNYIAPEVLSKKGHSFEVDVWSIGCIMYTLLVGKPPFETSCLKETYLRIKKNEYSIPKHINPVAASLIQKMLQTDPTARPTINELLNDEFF

remaining binding at 3 µM [1]: 97% | Kp ([4]; male, CD-1, mouse, brain and plasma, 10 mg/kg, brain:plasma, oral dosing in mice, read-out: AUC B:P ratio): 3.3 | Cmax [4, 5]: 693 ng/mL | Tmax [4, 5]: 8 h | half-life ([4]; mouse, po, brain exposure, p.o. 10 mg/kg, male CD-1 mice, read-out: T ½ (converted)): 726 min | AUC(0-t) ([4]; mouse, po, brain, p.o. 10 mg/kg, male CD-1 mice, read-out: AUClast brain): 20500 ng·h/mL | brain exposure (in words) ([4]; oral dosing in mice): high brain exposure
SMILES: CN(C)CCNC(=O)c1ccc(-c2ccc(-c3ccc(Cl)cc3)n2-c2ccccc2C(F)(F)F)cc1 (single isomer, unassigned) [Atropisomer A-2, 4-[5-(4-chlorophenyl)-1-[2-(trifluoromethyl)phenyl]pyrrol-2-yl]-N-[2-(dimethylamino)ethyl]benzamide]
cells with abnormal cytokinesis [2]: 70% | cells with non-congressed chromosomes [2]: 13% | cells with normal mitotic phenotype [2]: 17% | PLK4 inhibition phenotypes (centriole number) [3]: exhibits evidence of PLK4 inhibition phenotypes
